Molecular target: T1, full length SGK1 (Homo sapiens, UniProt O00141)
T1 construct: 125 μM full length SGK1 (Life Technologies Part #PR7358A); purchased Life Technologies PR7358A
T1 sequence (O00141 1-431): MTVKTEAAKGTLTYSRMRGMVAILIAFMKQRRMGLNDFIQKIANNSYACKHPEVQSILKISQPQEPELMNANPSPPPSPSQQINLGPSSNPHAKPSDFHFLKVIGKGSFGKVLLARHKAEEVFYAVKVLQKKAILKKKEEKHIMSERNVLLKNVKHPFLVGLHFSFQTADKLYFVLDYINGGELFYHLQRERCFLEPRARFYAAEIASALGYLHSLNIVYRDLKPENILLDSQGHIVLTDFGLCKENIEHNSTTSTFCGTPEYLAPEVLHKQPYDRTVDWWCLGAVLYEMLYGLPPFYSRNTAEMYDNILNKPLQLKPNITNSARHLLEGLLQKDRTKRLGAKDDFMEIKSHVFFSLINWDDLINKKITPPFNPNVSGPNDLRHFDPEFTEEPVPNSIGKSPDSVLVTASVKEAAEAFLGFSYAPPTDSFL
Test: SGK1 inhibition Assay A (Caliper LabChip electrophoretic separation of fluorescent peptide substrate and phosphorylated product)
Format: biochemical
Settings: Assay A; 20 μM ATP, 40 min incubation; read-out: SGK1 IC50

Compound	IC50 [nM]
CC(=O)N1CC=C(c2cc(OCCN(C)C)c(C(=O)N[C@@H]3CCCN(c4cc(C5=CCN(C(C)=O)C5)n5ncnc(N)c45)C3)s2)C1 [Example 910, (R)-5-(1-acetyl-2,5-dihydro-1H-pyrrol-3-yl)-N-(1-(7-(1-acetyl-2,5-dihydro-1H-pyrrol-3-yl)-4-aminopyrrolo[2,1-f][1,2,4]triazin-5-yl)piperidin-3-yl)-3-(2-(dimethylamino)ethoxy)thiophene-2-carboxamide]	59
COC(=O)CN1CC=C(c2cc(N3CCC[C@@H](NC(=O)c4ccc(Cl)s4)C3)c3c(N)ncnn23)C1 [Example 911, methyl (R)-2-(3-(4-amino-5-(3-(5-chlorothiophene-2-carboxamido)piperidin-1-yl)pyrrolo[2,1-f][1,2,4]triazin-7-yl)-2,5-dihydro-1H-pyrrol-1-yl)acetate]	70
Nc1ncnn2c(C3=CCN(CC(=O)O)C3)cc(N3CCC[C@@H](NC(=O)c4ccc(Cl)s4)C3)c12 [Example 912, (R)-2-(3-(4-amino-5-(3-(5-chlorothiophene-2-carboxamido)piperidin-1-yl)pyrrolo[2,1-f][1,2,4]triazin-7-yl)-2,5-dihydro-1H-pyrrol-1-yl)acetic acid]	214
NC(=O)N1CC=C(c2cc(N3CCC[C@@H](NC(=O)c4ccc(Cl)s4)C3)c3c(N)ncnn23)C1 [Example 913, (R)-3-(4-amino-5-(3-(5-chlorothiophene-2-carboxamido)piperidin-1-yl)pyrrolo[2,1-f][1,2,4]triazin-7-yl)-2,5-dihydro-1H-pyrrole-1-carboxamide]	3
CC(=O)NCC(=O)N1CC=C(c2cc(N3CCC[C@@H](NC(=O)c4ccc(Cl)s4)C3)c3c(N)ncnn23)C1 [Example 914, (R)—N-(1-(7-(1-(acetylglycyl)-2,5-dihydro-1H-pyrrol-3-yl)-4-aminopyrrolo[2,1-f][1,2,4]triazin-5-yl)piperidin-3-yl)-5-chlorothiophene-2-carboxamide]	3
CC(=O)NCCC(=O)N1CC=C(c2cc(N3CCC[C@@H](NC(=O)c4ccc(Cl)s4)C3)c3c(N)ncnn23)C1 [Example 915, (R)—N-(1-(7-(1-(3-acetamidopropanoyl)-2,5-dihydro-1H-pyrrol-3-yl)-4-aminopyrrolo[2,1-f][1,2,4]triazin-5-yl)piperidin-3-yl)-5-chlorothiophene-2-carboxamide]	10
CC(=O)N1CC=C(c2cc(N3CCCC(NC(=O)c4sc(C(F)F)cc4OC4CCN(C(C)C)CC4)C3)c3c(N)ncnn23)C1 (stereo not shown) [compound 442]	14
(R)-2-(1-(7-(1-acetyl-2,5- dihydro-1H-pyrrol-3-yl)- 4-aminopyrrolo[2,1- f][1,2,4]triazin-5- yl)piperidin-3-yl)-1,1,3,3- tetramethylguanidine [Example 724]	15
(R)-3-(4-amino-5-(3-(pyrazine-2-carboxamido)piperidin-1-yl)pyrrolo[2,1-f][1,2,4]triazin-7-yl)-2,5-dihydro-1H-pyrrole-1-carboxylate [Example 540]	216
(R)-N-(1-(4-amino-7-12-(2-hydroxypropan-2-yl)pyrimidin-5-yl)pyrrolo[2,1-f][1,2,4]triazin-5-yl)piperidin-3-yl)-5-(difluoromethyl)thiophene-2-carboxamide [Example 519]	1050
(R)-N-(1-(4-amino-7-(1-(2,2-difluoroethyl)-6-oxo-1,6-dihydropyridin-3-yl)pyrrolo[2,1-f][1,2,4]triazin-5-yl)piperidin-3-yl)-5-chlorothiophene-2-carboxamide [Example 520]	3
(R)-N-(1-(4-amino-7-(1-(isoxazole-3-carbonyl)-2,5-dihydro-1H-pyrrol-3-yl)pyrrolo[2,1-f|[1,2,4]triazin-5-yl)piperidin-3-y1)-5-chloro-3-(2-(dimethylamino)ethoxy)thiophene-2-carboxamide [Example 906]	1
(R)-N-(1-(4-amino-7-(1-ethyl-1H-pyrazol-5-yl)pyrrolo[2,1-f][1,2,4]triazin-5-yl)piperidin-3-yl)-6-(4-methylpiperazin-1-yl)picolinamide [Example 790]	30
(R)-N-(1-(7-(1-acetyl-2,5-dihydro-1H-pyrrol-3-yl)-4-aminopyrrolo[2,1-f][1,2,4]triazin-5-yl)piperidin-3-yl)-5-chloro-3-(piperidin-4-yloxy)thiophene-2-carboxamide [Example 575]	1
Methyl (R)-3-(4-amino-5-(3- (5-(difluoromethyl)-3- morpholinothiophene-2- carboxamido)piperidin-1- yl)pyrrolo[2,1-f][1,2,4]triazin- 7-yl)-2,5-dihydro-1H-pyrrole- 1-carboxylate [Example 320]	25
methyl 3-(4-amino-5-((3R)-3-(5-chloro-3-((2-methylpiperidin-4-yl)oxy)thiophene-2-carboxamido)piperidin-1-yl)pyrrolo[2,1-f][1,2,4]triazin-7-yl)-2,5-dihydro-1H-pyrrole-1-carboxylate [Example 621]	6
methyl (R)-3-(4-amino-5-(3-(6-(4-methylpiperazin-1-yl)picolinamido)piperidin-1-yl)pyrrolo[2,1-f][1,2,4]triazin-7-yl)-2,5-dihydro-1H-pyrrole-1-carboxylate [Example 789]	17
tert-butyl (R)-3- ((2-((1-(4-amino- 7-(6-cyanopyridin-3- yl)pyrrolo[2,1-f] [1,2,4]triazin-5- yl)piperidin-3- yl)carbamoyl) benzo[b]thiophen- 3-yl)oxy)azetidine- 1-carboxylate [Example 672]	65

Molecular target: T2, SGK1 (Homo sapiens, UniProt O00141)
T2 sequence (O00141 1-431): T1 sequence (O00141 1-431)
Test: SGK1 inhibition Assay B (Echo mass spectrometry of phosphorylated peptide product)
Format: biochemical
Settings: 60 min at room temperature

Compound	IC50 [nM]
CC(=O)N1CC=C(c2cc(N3CCC[C@@H](NC(=O)[C@]45CCC[C@H]4C5)C3)c3c(N)ncnn23)C1 (mixture of isomers) [Example 916, (cis)-N-[(3R)-1-[7-(1-acetyl-2,5-dihydro-1H-pyrrol-3-yl)-4-aminopyrrolo[2,1-f][1,2,4]triazin-5-yl]piperidin-3-yl]bicyclo[3.1.0]hexane-1-carboxamide]	56
Cc1nc(OC2CCC(NC3CC3)CC2)c(C(=O)N[C@@H]2CCCN(c3cc(-c4ccc(C(N)=O)c(F)c4)n4ncnc(N)c34)C2)s1 (single isomer, unassigned) [Example 941]	1
Cc1nc(OC2CCC(N3CCC3)CC2)c(C(=O)N[C@@H]2CCCN(c3cc(-c4ccc(C(N)=O)c(F)c4)n4ncnc(N)c34)C2)s1 (single isomer, unassigned) [Example 943]	2
CCN1CCC(Oc2nc(C)sc2C(=O)N[C@@H]2CCCN(c3cc(C4=CCN(C(C)=O)C4)n4ncnc(N)c34)C2)CC1(C)C (single isomer, unassigned) [Example 946]	12
CC(=O)N1CC=C(c2cc(N3CCC[C@@H](NC(=O)c4sc(Cl)cc4OC4CCN(C)C(C)(C)C4)C3)c3c(N)ncnn23)C1 (single isomer, unassigned) [Example 948]	2
Cc1nc(OC2CC3CC2CN3C(C)C)c(C(=O)N[C@@H]2CCCN(c3cc(-c4ccc(-n5cnnn5)c(F)c4)n4ncnc(N)c34)C2)s1 (single isomer, unassigned) [Example 949]	0.8
CC(=O)N1CC=C(c2cc(N3CCC[C@@H](NC(=O)c4sc(Cl)cc4OC4CC5CC(C4)N(C)C5)C3)c3c(N)ncnn23)C1 (single isomer, unassigned) [Example 952]	7
